Where a name gives a salt, the structure may show the parent alone.

A word on the melting point: it is the temperature of the solid-liquid transition. For `COCCNCCCc1ccc(Cl)c(C(=O)NCC23CC4CC(CC(C4)C2)C3)c1` (as salt: hydrochloride) [Example 22, 2-Chloro-5-[3-[(2-methoxyethyl)amino]propyl]-N-(tricyclo[3.3.1.1^3,7]dec-1-ylmethyl)-benzamide, hydrochloride salt], the melting point was 245 to 248 °C.

The record behind these values is patent US7297818B2, “Adamantane derivatives” (AstraZeneca AB, priority 1999, dated 2007).
